The values that follow are results of earlier work, collected in patent publication US20230301919A1, “FREEZE DRIED LOW HYGROSCOPICITY ACTIVE POWDER COMPOSITIONS” (PHILIP MORRIS PRODUCTS S.A., priority 2020, published 2023).

The conditions of this data set: at 25° C.

Regarding `OC[C@H]1O[C@H](O[C@H]2O[C@H](CO)[C@@H](O)[C@H](O)[C@H]2O)[C@H](O)[C@@H](O)[C@@H]1O` [trehalose], the solubility is recorded as 69 g/100 ml water.
